Assay results taken from patent US6610273B2, “Process for making chemically stable C-17/21 OH 20-ketosteroid aerosol products” (3M Innovative Properties Company, priority 1999, dated 2003).
Each block holds one compound with its values, some of them ahead of it.

How the values were obtained:
[1] = type: physicochemical
Method: (§1) At ambient temperature, a 3 mL ethanol solution of budesonide (0.007 M) was mixed with 0.1 g of aluminum oxide (Aldrich, neutral, activated Brockmann I, 150 mesh), which mimics aluminum oxide existing on the inner surface of aluminum containers. Each aliquot was filtered with a syringe filter and diluted with acetonitrile by 20 times for HPLC analysis to determine the recovery of budesonide with respect to the initial concentration. The recoveries of budesonide were compared with a reference, which contained the same concentration of budesonide but in ethanol solution without aluminum oxide.
as §1, with “triamcinolone acetonide” for “budesonide”
as §1, with “dexamethasone” for “budesonide”, “aliquote” for “aliquot”, “recoveries” for “recovery”, “inital” for “initial”

[2] = cited from earlier work; for Chemical stability of solution MDI formulation (in words): solution formulations, HFC propellant, prior publications
[3] = Solubility testing of budesonide in P134a and P227 formulations at approximately 5° C.; type: physicochemical

Degradation rate in ethanol/Al2O3 relative to isomer 21-BMP (17-OH) [1]: about 100 times
SMILES: CCC(=O)O[C@]1(C(=O)CO)[C@@H](C)C[C@H]2[C@@H]3CCC4=CC(=O)C=C[C@]4(C)[C@@]3(Cl)[C@@H](O)C[C@@]21C [beclomethasone 17-monopropionate]

SMILES: CCC(=O)OCC(=O)[C@@]1(OC(=O)CC)[C@@H](C)C[C@H]2[C@@H]3CCC4=CC(=O)C=C[C@]4(C)[C@@]3(Cl)[C@@H](O)C[C@@]21C [beclomethasone dipropionate]
Chemical stability of solution MDI formulation (in words) [2]: surprisingly chemically stable

Degradation in the presence of aluminum oxide (in words) [1]: almost totally consumed
Budesonide Solubility, MEAN ([3]; P134a, 5° C.): 0.012 mg/g
Budesonide Solubility, sample 1 ([3]; P134a, 5° C.): 0.013 mg/g
Budesonide Solubility, sample 2 ([3]; P134a, 5° C.): 0.010 mg/g
Budesonide Solubility, MEAN ([3]; P134a/5% EtOH, 5° C.): 0.465 mg/g
Budesonide Solubility, sample 1 ([3]; P134a/5% EtOH, 5° C.): 0.459 mg/g
Budesonide Solubility, sample 2 ([3]; P134a/5% EtOH, 5° C.): 0.471 mg/g
Budesonide Solubility, MEAN ([3]; P134a/10% EtOH, 5° C.): 1.382 mg/g
Budesonide Solubility, sample 1 ([3]; P134a/10% EtOH, 5° C.): 1.370 mg/g
Budesonide Solubility, sample 2 ([3]; P134a/10% EtOH, 5° C.): 1.394 mg/g
Budesonide Solubility, MEAN ([3]; P134a/15% EtOH, 5° C.): 2.699 mg/g
Budesonide Solubility, sample 1 ([3]; P134a/15% EtOH, 5° C.): 2.686 mg/g
Budesonide Solubility, sample 2 ([3]; P134a/15% EtOH, 5° C.): 2.711 mg/g
Budesonide Solubility, MEAN ([3]; P134a/20% EtOH, 5° C.): 4.360 mg/g
Budesonide Solubility, sample 1 ([3]; P134a/20% EtOH, 5° C.): 4.329 mg/g
Budesonide Solubility, sample 2 ([3]; P134a/20% EtOH, 5° C.): 4.390 mg/g
Budesonide Solubility, MEAN ([3]; P227, 5° C.): 0.016 mg/g
Budesonide Solubility, sample 1 ([3]; P227, 5° C.): 0.017 mg/g
Budesonide Solubility, sample 2 ([3]; P227, 5° C.): 0.015 mg/g
Budesonide Solubility, MEAN ([3]; P227/5% EtOH, 5° C.): 0.657 mg/g
Budesonide Solubility, sample 1 ([3]; P227/5% EtOH, 5° C.): 0.652 mg/g
Budesonide Solubility, sample 2 ([3]; P227/5% EtOH, 5° C.): 0.661 mg/g
Budesonide Solubility, MEAN ([3]; P227/10% EtOH, 5° C.): 1.703 mg/g
Budesonide Solubility, sample 1 ([3]; P227/10% EtOH, 5° C.): 1.698 mg/g
Budesonide Solubility, sample 2 ([3]; P227/10% EtOH, 5° C.): 1.707 mg/g
Budesonide Solubility, MEAN ([3]; P227/15% EtOH, 5° C.): 2.98 mg/g
Budesonide Solubility, sample 1 ([3]; P227/15% EtOH, 5° C.): 2.952 mg/g
Budesonide Solubility, sample 2 ([3]; P227/15% EtOH, 5° C.): 3.008 mg/g
Budesonide Solubility, MEAN ([3]; P227/20% EtOH, 5° C.): 4.435 mg/g
Budesonide Solubility, sample 1 ([3]; P227/20% EtOH, 5° C.): 4.387 mg/g
Budesonide Solubility, sample 2 ([3]; P227/20% EtOH, 5° C.): 4.483 mg/g
SMILES: CCCC1O[C@@H]2C[C@H]3[C@@H]4CCC5=CC(=O)C=C[C@]5(C)[C@H]4[C@@H](O)C[C@]3(C)[C@]2(C(=O)CO)O1 (stereo partly drawn) [budesonide]

SMILES: CC(C)C(=O)OCC(=O)[C@@]12O[C@H](C3CCCCC3)O[C@@H]1C[C@H]1[C@@H]3CCC4=CC(=O)C=C[C@]4(C)[C@H]3[C@@H](O)C[C@@]12C [ciclesonide]
Chemical stability of solution MDI formulation (in words) [2]: surprisingly chemically stable

Degradation in the presence of aluminum oxide (in words) [1]: completely degrades
SMILES: C[C@@H]1C[C@H]2[C@@H]3CCC4=CC(=O)C=C[C@]4(C)[C@@]3(F)[C@@H](O)C[C@]2(C)[C@@]1(O)C(=O)CO [dexamethasone]

SMILES: CC1(C)O[C@@H]2C[C@H]3[C@@H]4CCC5=CC(=O)C=C[C@]5(C)[C@@]4(F)[C@@H](O)C[C@]3(C)[C@]2(C(=O)CO)O1 [triamcinolone acetonide]
Degradation in aqueous formulations (in words) ([2]; aqueous formulations in neutral or basic solutions, WO96/40042): undergo oxidative degradation catalyzed by trace levels of metal ions
